The values below come from US11981658B2, “Substituted aminopyridine compounds as EGFR inhibitors” (YUHAN CORPORATION, priority 2021, dated 2024).

Assay [1] deals with EGFR L858R/C797S (Homo sapiens, UniProt P00533, C797S/L858R). Nature of the assay: Biochemical EGFR kinase inhibition assay (Lance Ultra TR-FRET), double mutant L858R/C797S. The gist of the method:
(§1)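 Enzyme reactions lasted 1 hour at room temperature with test compounds between 0.003 and 10 μM, followed by 10 mM EDTA quench.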

Assay [2] has as its target EGFR Del19/C797S (Homo sapiens, UniProt P00533, C797S/DEL746-750). Kind of assay: Biochemical EGFR kinase inhibition assay (Lance Ultra TR-FRET), double mutant del19/C797S. The gist of the method: as §1
In general terms: In TR-FRET formats the signal depends on donor and acceptor labels being close together.

For assay [3], the target named is EGFR L858R/T790M/C797S (Homo sapiens, UniProt P00533, C797S/L858R/T790M). Kind of assay: Biochemical EGFR kinase inhibition assay (Lance Ultra TR-FRET), triple mutant L858R/T790M/C797S. The procedure, abridged: as §1
The target of assay [4] is EGFR wildtype (WT) (Homo sapiens, UniProt P00533). Kind of assay: Biochemical EGFR kinase inhibition assay (Lance Ultra TR-FRET), wildtype. The gist of the method:
as §1

The target of assay [5] is EGFR Del19/T790M/C797S (Homo sapiens, UniProt P00533, C797S/DEL746-750/T790M). Nature of the assay: Biochemical EGFR kinase inhibition assay (Lance Ultra TR-FRET), triple mutant del19/T790M/C797S. The procedure, abridged:
as §1

[6] abbreviates: IC50 L858R/C797S (nM), 100 μM ATP.
The mark [7] stands for this setting: IC50 Del19/C797S (nM), 100 μM ATP.
Where [8] appears, read: IC50 L858R/T790M/C797S (nM), 100 μM ATP.
The mark [9] stands for this setting: IC50 Del19/T790M/C797S (nM), 100 μM ATP.
Setting [10] is: Km ATP, read-out: IC50 L858R/C797S (nM) Km ATP.
[11] abbreviates: Km ATP, read-out: IC50 Del19/C797S (nM) Km ATP.
Setting [12] is: Km ATP, read-out: IC50 L858R/T790M/C797S (nM) Km ATP.
[13] abbreviates: Km ATP, read-out: IC50 WT (nM) Km ATP.
Setting [14] is: Km ATP, read-out: IC50 Del19/T790M/C797S (nM) Km ATP.
[15] abbreviates: Km ATP, read-out: IC50 L858R/T790M/C797S (nM), Km ATP.
The mark [16] stands for this setting: Km ATP, read-out: IC50 Del19/T790M/C797S (nM), Km ATP.
Where [17] appears, read: ATP at Km, read-out: IC50 L858R/C797S (nM), Km ATP.
Where [18] appears, read: ATP at Km, read-out: IC50 Del19/C797S (nM), Km ATP.
Setting [19] is: ATP at Km, read-out: IC50 L858R/T790M/C797S (nM), Km ATP.
The mark [20] stands for this setting: ATP at Km, read-out: IC50 WT (nM), Km ATP.
Where [21] appears, read: ATP at Km, read-out: IC50 Del19/T790M/C797S (nM), Km ATP.
The mark [22] stands for this setting: Km ATP, read-out: IC50 L858R/C797S (nM), Km ATP.
Setting [23] is: Km ATP, read-out: IC50 Del19/C797S (nM), Km ATP.
Setting [24] is: Km ATP, read-out: IC50 WT (nM), Km ATP.

Read-outs that look alike come from different tables or passages of the source.

Sequence of EGFR Del19/T790M/C797S (P00533 with tags, fused parts or gaps DEL746-750/T790M/C797S): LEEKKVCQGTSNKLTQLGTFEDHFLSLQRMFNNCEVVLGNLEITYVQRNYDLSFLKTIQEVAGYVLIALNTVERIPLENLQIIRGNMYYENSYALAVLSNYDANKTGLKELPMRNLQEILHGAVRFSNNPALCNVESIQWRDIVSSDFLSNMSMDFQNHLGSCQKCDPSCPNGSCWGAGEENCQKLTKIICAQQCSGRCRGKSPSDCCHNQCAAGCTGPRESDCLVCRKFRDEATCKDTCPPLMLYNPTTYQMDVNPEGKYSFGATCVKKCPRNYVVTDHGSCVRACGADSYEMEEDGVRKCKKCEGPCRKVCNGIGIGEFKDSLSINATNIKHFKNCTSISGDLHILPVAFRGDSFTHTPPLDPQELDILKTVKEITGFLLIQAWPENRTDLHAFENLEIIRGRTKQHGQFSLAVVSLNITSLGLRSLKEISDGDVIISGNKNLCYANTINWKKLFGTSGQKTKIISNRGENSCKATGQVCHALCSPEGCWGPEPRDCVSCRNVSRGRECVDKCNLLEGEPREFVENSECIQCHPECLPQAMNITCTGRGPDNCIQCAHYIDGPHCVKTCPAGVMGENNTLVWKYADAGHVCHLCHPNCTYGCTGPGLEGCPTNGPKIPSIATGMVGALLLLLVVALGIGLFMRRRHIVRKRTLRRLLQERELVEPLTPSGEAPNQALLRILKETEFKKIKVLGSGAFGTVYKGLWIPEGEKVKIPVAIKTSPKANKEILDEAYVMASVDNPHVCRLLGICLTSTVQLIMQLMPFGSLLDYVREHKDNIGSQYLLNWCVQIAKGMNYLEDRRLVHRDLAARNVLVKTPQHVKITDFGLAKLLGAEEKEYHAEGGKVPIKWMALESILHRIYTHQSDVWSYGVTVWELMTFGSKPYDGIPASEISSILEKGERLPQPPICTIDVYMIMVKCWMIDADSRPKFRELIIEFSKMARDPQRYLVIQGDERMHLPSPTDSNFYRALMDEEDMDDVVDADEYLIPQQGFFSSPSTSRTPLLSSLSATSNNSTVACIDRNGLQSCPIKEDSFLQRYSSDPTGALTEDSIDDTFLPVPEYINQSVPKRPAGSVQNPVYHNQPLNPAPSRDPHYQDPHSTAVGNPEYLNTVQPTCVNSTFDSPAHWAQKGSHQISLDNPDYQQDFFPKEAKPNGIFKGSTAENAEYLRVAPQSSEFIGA
Sequence of EGFR L858R/C797S (P00533 25-1210 C797S/L858R): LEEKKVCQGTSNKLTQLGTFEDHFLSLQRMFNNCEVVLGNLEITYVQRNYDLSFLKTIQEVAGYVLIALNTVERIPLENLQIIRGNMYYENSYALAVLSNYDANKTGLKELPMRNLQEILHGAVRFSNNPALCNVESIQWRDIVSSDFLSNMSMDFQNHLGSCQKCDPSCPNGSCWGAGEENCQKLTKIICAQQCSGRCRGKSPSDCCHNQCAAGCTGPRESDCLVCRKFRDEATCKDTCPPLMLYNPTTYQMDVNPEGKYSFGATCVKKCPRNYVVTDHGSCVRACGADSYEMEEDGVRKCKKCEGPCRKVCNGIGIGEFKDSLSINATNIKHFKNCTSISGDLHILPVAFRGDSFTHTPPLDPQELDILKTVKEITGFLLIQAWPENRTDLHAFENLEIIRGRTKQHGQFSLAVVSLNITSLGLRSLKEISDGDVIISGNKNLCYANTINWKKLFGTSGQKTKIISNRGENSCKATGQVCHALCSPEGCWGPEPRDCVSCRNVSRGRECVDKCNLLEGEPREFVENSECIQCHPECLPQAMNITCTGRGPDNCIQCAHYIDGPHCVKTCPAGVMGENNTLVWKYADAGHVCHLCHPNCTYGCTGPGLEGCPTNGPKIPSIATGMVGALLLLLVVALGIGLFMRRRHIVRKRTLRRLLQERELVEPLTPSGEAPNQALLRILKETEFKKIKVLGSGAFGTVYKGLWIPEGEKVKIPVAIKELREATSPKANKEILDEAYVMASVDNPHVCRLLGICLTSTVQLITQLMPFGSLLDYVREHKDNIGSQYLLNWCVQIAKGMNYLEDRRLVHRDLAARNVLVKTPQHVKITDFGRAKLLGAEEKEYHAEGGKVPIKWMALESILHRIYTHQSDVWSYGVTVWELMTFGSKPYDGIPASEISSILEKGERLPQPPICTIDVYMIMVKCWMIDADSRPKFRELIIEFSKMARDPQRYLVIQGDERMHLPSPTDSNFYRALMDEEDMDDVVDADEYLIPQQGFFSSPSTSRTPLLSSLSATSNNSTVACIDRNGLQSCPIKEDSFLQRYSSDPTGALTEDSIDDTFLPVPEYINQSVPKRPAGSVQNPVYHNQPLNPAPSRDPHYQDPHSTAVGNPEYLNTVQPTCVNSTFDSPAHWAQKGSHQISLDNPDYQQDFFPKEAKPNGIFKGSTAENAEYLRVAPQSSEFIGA
Sequence of EGFR wildtype (WT) (P00533 25-1210): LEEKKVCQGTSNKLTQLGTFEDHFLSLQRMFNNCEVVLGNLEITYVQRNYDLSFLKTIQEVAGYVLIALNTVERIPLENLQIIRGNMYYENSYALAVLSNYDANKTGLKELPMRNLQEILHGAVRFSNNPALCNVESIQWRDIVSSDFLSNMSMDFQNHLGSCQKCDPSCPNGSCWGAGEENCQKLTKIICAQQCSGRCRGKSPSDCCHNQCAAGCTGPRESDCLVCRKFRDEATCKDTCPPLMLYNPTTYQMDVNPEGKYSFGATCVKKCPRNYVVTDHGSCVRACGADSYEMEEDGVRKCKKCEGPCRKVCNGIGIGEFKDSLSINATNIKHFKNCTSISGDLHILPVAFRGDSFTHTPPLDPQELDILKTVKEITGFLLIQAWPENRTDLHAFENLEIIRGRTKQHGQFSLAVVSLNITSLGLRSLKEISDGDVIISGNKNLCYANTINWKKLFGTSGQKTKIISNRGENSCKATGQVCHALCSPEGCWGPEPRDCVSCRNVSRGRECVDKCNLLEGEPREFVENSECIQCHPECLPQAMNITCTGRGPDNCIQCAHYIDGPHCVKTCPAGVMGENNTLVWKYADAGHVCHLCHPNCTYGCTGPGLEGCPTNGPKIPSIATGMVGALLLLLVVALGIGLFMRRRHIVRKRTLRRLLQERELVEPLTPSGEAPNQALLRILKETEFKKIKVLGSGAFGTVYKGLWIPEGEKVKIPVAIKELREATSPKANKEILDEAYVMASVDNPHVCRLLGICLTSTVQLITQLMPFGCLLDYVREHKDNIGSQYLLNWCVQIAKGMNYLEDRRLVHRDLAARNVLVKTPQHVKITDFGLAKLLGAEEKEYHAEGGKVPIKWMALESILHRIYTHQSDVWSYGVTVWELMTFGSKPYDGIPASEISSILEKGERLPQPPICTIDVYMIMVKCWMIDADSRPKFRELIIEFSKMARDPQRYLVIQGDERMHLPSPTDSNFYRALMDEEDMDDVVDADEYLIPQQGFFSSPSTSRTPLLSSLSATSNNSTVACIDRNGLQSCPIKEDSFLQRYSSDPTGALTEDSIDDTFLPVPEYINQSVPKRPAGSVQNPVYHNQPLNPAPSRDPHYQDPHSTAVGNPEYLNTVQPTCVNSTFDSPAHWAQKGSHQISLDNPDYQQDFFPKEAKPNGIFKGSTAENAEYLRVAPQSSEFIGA
Sequence of EGFR Del19/C797S (P00533 with tags, fused parts or gaps DEL746-750/C797S): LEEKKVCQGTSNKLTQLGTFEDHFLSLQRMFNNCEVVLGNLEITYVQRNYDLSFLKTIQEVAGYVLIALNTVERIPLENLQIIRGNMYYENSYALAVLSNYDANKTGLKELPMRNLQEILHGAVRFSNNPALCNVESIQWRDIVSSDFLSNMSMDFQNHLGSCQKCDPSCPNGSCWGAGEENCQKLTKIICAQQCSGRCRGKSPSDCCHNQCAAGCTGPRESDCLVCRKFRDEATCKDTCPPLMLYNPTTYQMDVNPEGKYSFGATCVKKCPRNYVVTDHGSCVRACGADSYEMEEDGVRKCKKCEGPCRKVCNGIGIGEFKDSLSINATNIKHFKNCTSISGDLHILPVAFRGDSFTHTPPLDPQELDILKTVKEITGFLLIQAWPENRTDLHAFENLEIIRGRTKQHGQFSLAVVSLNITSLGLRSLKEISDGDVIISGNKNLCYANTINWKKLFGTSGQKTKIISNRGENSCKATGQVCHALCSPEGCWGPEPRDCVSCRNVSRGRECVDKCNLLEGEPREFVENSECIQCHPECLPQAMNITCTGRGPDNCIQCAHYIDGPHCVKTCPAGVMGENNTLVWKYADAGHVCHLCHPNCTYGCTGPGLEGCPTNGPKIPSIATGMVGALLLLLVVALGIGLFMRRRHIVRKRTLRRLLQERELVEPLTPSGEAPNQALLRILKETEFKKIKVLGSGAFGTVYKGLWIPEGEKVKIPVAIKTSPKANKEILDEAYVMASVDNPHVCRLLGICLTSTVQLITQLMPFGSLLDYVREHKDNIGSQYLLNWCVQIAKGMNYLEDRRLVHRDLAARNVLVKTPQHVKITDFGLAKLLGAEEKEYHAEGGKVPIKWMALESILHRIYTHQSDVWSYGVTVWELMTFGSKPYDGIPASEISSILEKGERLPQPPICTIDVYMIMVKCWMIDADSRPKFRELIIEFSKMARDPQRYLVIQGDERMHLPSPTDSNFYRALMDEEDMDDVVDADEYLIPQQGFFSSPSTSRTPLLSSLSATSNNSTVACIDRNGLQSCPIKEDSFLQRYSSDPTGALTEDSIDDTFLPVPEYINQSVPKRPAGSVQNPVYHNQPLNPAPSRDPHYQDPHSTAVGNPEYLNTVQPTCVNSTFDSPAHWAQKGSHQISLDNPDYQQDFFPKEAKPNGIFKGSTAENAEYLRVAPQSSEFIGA

Regarding `Cn1ncc(C#Cc2cnc(Nc3ccnc(-c4cnn(S(=O)(=O)C5CC5)c4)n3)cc2N[C@H]2CC[C@@H](O)CC2)c1C1CC1` [Example 88, (1s,4s)-4-((5-((5-Cyclopropyl-1-methyl-1H-pyrazol-4-yl)ethynyl)-2-((2-(1-(cyclopropylsulfonyl)-1H-pyrazol-4-yl)pyrimidin-4-yl)amino)pyridin-4-yl)amino)cyclohexan-1-ol], the IC50 was 65 nM in assay [1] (setting [6]); 15.6 nM in assay [2] (setting [7]); 3.9 nM in assay [3] (setting [8]); greater than 10000 nM in assay [4] (IC50 WT (nM), 100 μM ATP); 1.6 nM in assay [5] (setting [9]).
Regarding `C[C@]1(O)CC[C@@H](Nc2cc(Nc3ccnc(-c4cnn(S(=O)(=O)C5CC5)c4)n3)ncc2C#Cc2cnn(C(F)(F)F)c2)CC1` [Example 105, (1s,4s)-4-((2-((2-(1-(Cyclopropylsulfonyl)-1H-pyrazol-4-yl)pyrimidin-4-yl)amino)-5-((1-(trifluoromethyl)-1H-pyrazol-4-yl)ethynyl)pyridin-4-yl)amino)-1-methylcyclohexan-1-ol], the IC50 in assay [1] (setting [6]) came to 2200 nM; in assay [1] (setting [10]), 100 nM; in assay [2] (setting [7]), 64.2 nM; in assay [2] (setting [11]), 48.7 nM; in assay [3] (setting [8]) it was 6.5 nM; in assay [3] (setting [12]), 1.5 nM. Further, the IC50 is greater than 10000 nM in assay [4] (IC50 WT (nM), 100 μM ATP); 2520 nM in assay [4] (setting [13]); 3.2 nM in assay [5] (setting [9]); 2.3 nM in assay [5] (setting [14]).
On to `O=S(=O)(C1CC1)n1cc(-c2nccc(Nc3cc(N[C@H]4CCC[C@H](O)C4)c(C#Cc4ccsc4)cn3)n2)cn1` [Example 225, (1 S,3S)-3-((2-((2-(1-(Cyclopropylsulfonyl)-1H-pyrazol-4-yl)pyrimidin-4-yl)amino)-5-(thiophen-3-ylethynyl)pyridin-4-yl)amino)cyclohexan-1-ol], for which the IC50 in assay [1] (setting [6]) was 310 nM; in assay [2] (setting [7]) it was 87.8 nM; in assay [3] (setting [8]), 12.3 nM; in assay [4] (IC50 WT (nM), 100 μM ATP) it was greater than 10000 nM; in assay [5] (setting [9]), 6.4 nM.
Regarding `O=C(c1ccc(C#Cc2cnc(Nc3ccnc(-c4cnn(S(=O)(=O)C5CC5)c4)n3)cc2N2CCC[C@@H](O)C2)cc1)N1CCC(O)CC1` [Example 444, (R)-(4-((6-((2-(1-(Cyclopropylsulfonyl)-1H-pyrazol-4-yl)pyrimidin-4-yl)amino)-4-(3-hydroxypiperidin-1-yl)pyridin-3-yl)ethynyl)phenyl)(4-hydroxypiperidin-1-yl)methanone], the IC50 in assay [1] (setting [6]) was 549 nM; in assay [2] (setting [7]), 10.2 nM; in assay [3] (setting [8]), 1.5 nM; in assay [3] (setting [15]), 0.3 nM; in assay [4] (IC50 WT (nM), 100 μM ATP) it was greater than 10000 nM; in assay [5] (setting [9]), 1.5 nM. Besides, in assay [5] (setting [16]), the IC50 was found to be 0.9 nM.
Regarding `CC1(C)CN(c2cc(Nc3ccnc(-c4cnn(S(=O)(=O)C5CC5)c4)n3)ncc2C#Cc2ccsc2)CCC1O` (stereo not drawn) [Example 229, 1-(2-((2-(1-(Cyclopropylsulfonyl)-1H-pyrazol-4-yl)pyrimidin-4-yl)amino)-5-(thiophen-3-ylethynyl)pyridin-4-yl)-3,3-dimethylpiperidin-4-ol], the IC50 was 368 nM in assay [1] (setting [6]); 175 nM in assay [2] (setting [7]); 26.9 nM in assay [3] (setting [8]); greater than 10000 nM in assay [4] (IC50 WT (nM), 100 μM ATP); 8.9 nM in assay [5] (setting [9]).
For `CC1(O)CCN(c2cc(Nc3ccnc(-c4cnn(S(=O)(=O)C5CC5)c4)n3)ncc2C#CC2CCN(C(=O)C(F)(F)F)C2)CC1` (stereo not drawn) [Example 410, 1-(3-((6-((2-(1-(Cyclopropylsulfonyl)-1H-pyrazol-4-yl)pyrimidin-4-yl)amino)-4-(4-hydroxy-4-methylpiperidin-1-yl)pyridin-3-yl)ethynyl)pyrrolidin-1-yl)-2,2,2-trifluoroethan-1-one], the IC50 in assay [1] (setting [6]) was found to be 29.4 nM; in assay [2] (setting [7]), 3.1 nM; in assay [3] (setting [8]), 0.6 nM; in assay [4] (IC50 WT (nM), 100 μM ATP), 7420 nM; in assay [5] (setting [9]), 0.2 nM.
On to `CN(C)C(=O)c1ccc(C#Cc2cnc(Nc3ccnc(-c4cnn(S(=O)(=O)C5CC5)c4)n3)cc2N2CCC(C)(CO)CC2)cc1` [Example 262, 4-((6-((2-(1-(Cyclopropylsulfonyl)-1H-pyrazol-4-yl)pyrimidin-4-yl)amino)-4-(4-(hydroxymethyl)-4-methylpiperidin-1-yl)pyridin-3-yl)ethynyl)-N,N-dimethylbenzamide], for which the IC50 in assay [1] (setting [17]) came to 0.9 nM; in assay [1] (setting [6]) it was 5.7 nM; in assay [2] (setting [18]), 0.8 nM; in assay [2] (setting [7]), 1.1 nM; in assay [3] (setting [19]) it was 0.4 nM; in assay [3] (setting [8]), 1.3 nM. The IC50 in assay [4] (setting [20]) was 4.4 nM; in assay [4] (IC50 WT (nM), 100 μM ATP) it was greater than 10000 nM; in assay [5] (setting [21]), 1.2 nM; in assay [5] (setting [9]), 1.4 nM.
With `O=S(=O)(C1CC1)n1cc(-c2nccc(Nc3cc(N4CCC(CO)CC4)c(C#Cc4cnn(CCF)c4)cn3)n2)cn1` [Example 30, (1-(2-((2-(1-(Cyclopropylsulfonyl)-1H-pyrazol-4-yl)pyrimidin-4-yl)amino)-5-((1-(2-fluoroethyl)-1H-pyrazol-4-yl)ethynyl)pyridin-4-yl)piperidin-4-yl)methanol], the IC50 in assay [1] (setting [6]) is 22.3 nM; in assay [1] (setting [10]), 4.4 nM; in assay [2] (setting [7]), 2.8 nM; in assay [2] (setting [11]) it was 3 nM; in assay [3] (setting [8]), 1.4 nM; in assay [4] (IC50 WT (nM), 100 μM ATP) it was greater than 10000 nM. The IC50 in assay [4] (setting [13]) came to 8.2 nM; in assay [5] (setting [9]), 1.3 nM; in assay [5] (setting [14]), 0.9 nM.
Turning to `O=S(=O)(C1CC1)n1cc(-c2nccc(Nc3cc(N4CCC(C5(O)CC5)CC4)c(C#Cc4cnn(C(F)(F)F)c4)cn3)n2)cn1` [Example 330, 1-(1-(2-((2-(1-(Cyclopropylsulfonyl)-1H-pyrazol-4-yl)pyrimidin-4-yl)amino)-5-((1-(trifluoromethyl)-1H-pyrazol-4-yl)ethynyl)pyridin-4-yl)piperidin-4-yl)cyclopropan-1-ol], the IC50 turned out to be 17.6 nM in assay [1] (setting [17]); 45.5 nM in assay [1] (setting [6]); 55.5 nM in assay [2] (setting [18]); 771 nM in assay [2] (setting [7]); 2.2 nM in assay [3] (setting [19]); 6.2 nM in assay [3] (setting [8]). Moreover, the IC50 in assay [4] (setting [20]) was 272 nM; in assay [4] (IC50 WT (nM), 100 μM ATP), greater than 10000 nM; in assay [5] (setting [21]), 1.9 nM; in assay [5] (setting [9]), 5.2 nM.
As for `CN(C)CCC1CCN(c2cc(Nc3ccnc(-c4cnn(S(=O)(=O)C5CC5)c4)n3)ncc2C#Cc2cnn(C(F)(F)F)c2)CC1` [Example 335, 2-(1-(Cyclopropylsulfonyl)-1H-pyrazol-4-yl)-N-(4-(4-(2-(dimethylamino)ethyl)piperidin-1-yl)-5-((1-(trifluoromethyl)-1H-pyrazol-4-yl)ethynyl)pyridin-2-yl)pyrimidin-4-amine], the IC50 in assay [1] (setting [6]) came out at 53.4 nM; in assay [1] (setting [22]) it was 4.3 nM; in assay [2] (setting [7]), 2.3 nM; in assay [2] (setting [23]), 2.1 nM; in assay [3] (setting [8]), 0.4 nM; in assay [3] (setting [15]), 0.2 nM. For the same molecule, the IC50 in assay [4] (IC50 WT (nM), 100 μM ATP) turned out to be 4970 nM; in assay [4] (setting [24]), 9.2 nM; in assay [5] (setting [9]) it was 0.4 nM; in assay [5] (setting [16]), 0.4 nM.
Consider `CN(C)CCCn1cc(C#Cc2cnc(Nc3ccnc(-c4cnn(S(=O)(=O)C5CC5)c4)n3)cc2N[C@H]2CC[C@@H](O)CC2)cn1` [Example 123, (1s,4s)-4-((2-((2-(1-(Cyclopropylsulfonyl)-1H-pyrazol-4-yl)pyrimidin-4-yl)amino)-5-((1-(3-(dimethylamino)propyl)-1H-pyrazol-4-yl)ethynyl)pyridin-4-yl)amino)cyclohexan-1-ol], for which the IC50 in assay [1] (setting [6]) turned out to be 4.3 nM; in assay [1] (setting [10]), 0.3 nM; in assay [2] (setting [7]), 0.6 nM; in assay [2] (setting [11]), 0.3 nM; in assay [3] (setting [8]), 0.4 nM; in assay [3] (setting [12]), 0.1 nM. Besides, the IC50 came out at 1080 nM in assay [4] (IC50 WT (nM), 100 μM ATP); 3.6 nM in assay [4] (setting [13]); 0.4 nM in assay [5] (setting [9]); 0.4 nM in assay [5] (setting [14]).
In the case of `CC1(CO)CCN(c2cc(Nc3ccnc(-c4cnn(S(=O)(=O)C5CC5)c4)n3)ncc2C#CC2CCN(S(=O)(=O)C3CC3)C2)CC1` (stereo not drawn) [Example 395, (1-(2-((2-(1-(Cyclopropylsulfonyl)-1H-pyrazol-4-yl)pyrimidin-4-yl)amino)-5-((1-(cyclopropylsulfonyl)pyrrolidin-3-yl)ethynyl)pyridin-4-yl)-4-methylpiperidin-4-yl)methanol], the IC50 in assay [1] (setting [6]) was 51.2 nM; in assay [1] (setting [22]), 2.7 nM; in assay [2] (setting [7]) it was 8.3 nM; in assay [2] (setting [23]), 6.6 nM; in assay [3] (setting [8]), 1.3 nM; in assay [3] (setting [15]) it was 0.3 nM. The IC50 in assay [4] (IC50 WT (nM), 100 μM ATP) was determined as 9220 nM; in assay [4] (setting [24]), 16.9 nM; in assay [5] (setting [9]), 0.7 nM; in assay [5] (setting [16]), 0.6 nM.
